Experimental data as given in patent US8119657B2, “Enantiomeric compositions of 2-amino-1-(2-isopropylpyrazolo[1,5-α]pyridin-3-yl)propan-1-one and related methods” (MediciNova, Inc., priority 2009, dated 2012).
“Also recorded” adds a separate entry of the source.

Assays:
[1] = Bioavailability and duration of action of (S)-AV1013
[2] = Rat pharmacokinetics of the enantiomers after oral dosing of racemic AV1013; type: in vivo; settings: for Cmax: po
Procedure: Three male Sprague-Dawley rats were dosed orally via gavage with 25 mg/kg racemic AV1013 dissolved in water. Serial blood samples were collected from the tail vein at 5, 15, and 30 min, 1, 3, and 6 hours post dosing. Samples were processed for plasma via centrifugation and plasma samples were stored frozen prior to analysis.
(§1) A sensitive and specific chiral HPLC/MS/MS bioanalytical method for the detection of (S)-AV1013 and (R)-AV1013 enantiomers in rat and dog plasma was utilized. AV1013 enantiomers and the internal standard (AV1040, an analog of AV1013) were isolated from plasma by protein precipitation induced by acetonitrile. After centrifugation to sediment the proteins, the supernatant fractions were analyzed by high performance liquid chromatography (LC) in conjunction with a triple quadrupole mass spectrometer that used electrospray ionization in tandem with positive ionization (MS/MS) according to the conditions below. The LLOQ (lower level of quantitation) was typically <3 ng/mL.
(§2) Analysis of pharmacokinetic parameters was performed for each enantiomer via LC/MS bioanalytics and WinNonlin™ analysis (version 4.0.1; Pharsight Corp., Mountain View, Calif.), commercial software designed for the analysis of PK data. The PK modeling was based on a non-compartmental model with gradual input into the central compartment. Computation of the area under the curve (AUC) was based on the sum of trapezoidal areas for the plotted plasma concentration-time data. AUC and associated parameters were estimated by log-linear regression analysis of the terminal phase.

[3] = Chiral and chemical stability in solution and on storage; type: physicochemical; settings: for racemization in dosing solutions and bioanalytical solutions: saline vehicle, DMSO:methanol, 1:1
From the text: Without ascribing to any particular theory, the present inventors believe that the facile separation of enantiomers using the N-protected racemate of AV1013 is probably due to the greater stability of the racemate as well as the separate enantiomers in protected form. […] Unstability also stems from the ability of the free base to self condense. Because self-condensation is promoted in concentrated solutions, it is desirable to avoid highly concentrated solutions of the free base form of optically active AV1013. Likewise, the free base form of racemic AV1013 or its hydrochloride salt are also unstable, precluding their use as precursors to obtaining (S)-AV1013 as a free base or its hydrochloride salt in high yield and/or high purity.
Thus, it is often desirable to re-purify the de-protected product using purification techniques known in the art. For example, any one or more of the methods described above for separating chiral molecules, such as, chromatography (e.g., HPLC, GC, and SFC), crystallization, fractional crystallization, and the like may be used for re-purification. An exemplary method is recrystallization. Purification by recrystallization allows separation of the desired (S)-enantiomer in high purity, such that the overall reaction sequence including isolation of the desired (S)-enantiomer requires only a single chromatographic step (i.e., the chiral separation). Recrystallization can be carried out in any of a number of single or mixed solvent systems including alcohols, ethers, esters, nitriles, halogenated hydrocarbons, amides and aqueous mixtures thereof. Suitable solvents include methanol, ethanol, propanol, iso-propanol, acetone, tetrahyrofuran, methyl ethyl ketone, methyl isobutyl ketone, ethyl acetate, amyl acetate, acetonitrile, diethyl ether, methyl tert-butyl ether, dichloromethane, dichloroethane, chloroform, dimethylformamide, and combinations thereof. Illustrative mixed solvent systems used to recrystallize (S)-AV1013 are iso-propanol/methyl tert-butyl ether and ethanol/methyl tert-butyl ether.
The five-step route provided a 15% overall yield of (S)-AV1013.HCl. The chiral separation, by SFC chromatography, is the only chromatographic step required. Hydrolysis of the N-protected (S)-AV1013, followed by recrystallization from iso-propanol/methyl tert-butyl ether provided (S)-AV1013.HCl in greater than 99% chemical purity and greater than 97% S-enantiomer (greater than 94% enantiomeric excess (ee)) by chiral HPLC, as determined from the equation ee=[|R−S^51÷(R+S)]×100 ee=[|R−S|÷(R+S)]×100. […] Even under optimal storage and handling conditions to minimize exposure to moisture, a small degree of racemization (i.e., approximately 2%) was observed. Recrystallization was effective to improve enantiomeric purity to arrive at a product having an illustrative chiral purity as described above. […] The recrystallized (S)-AV 1013.HCl contained approximately 25 mole percent alcohol (less than about 10% by weight) even when dried at 50° C. Thus, it appears that the resultant product is formed as a solvate under the recrystallization and drying conditions employed.

[4] = test system: rat chronic constriction injury model of neuropathic pain; experiment: Rat chronic constriction injury model of neuropathic pain (von Frey mechanical allodynia); type: in vivo; settings: rat CCI, oral 25 mg/kg, 2 hours post-dosing, 25 mg/kg
From the text: The (S)- and the (R)-enantiomer of AV1013 were each evaluated in a rat chronic constriction injury model of neuropathic pain (see, Ledeboer et. al., Neuron Glia Biology, (2006), p 279-291), to determine whether differences in their activity could be observed.
To induce allodynia, male Sprague-Dawley rats underwent chronic constriction injury (CCI) to the sciatic nerve as described by Bennett and Xie, Pain 1988; 33(1):87-107. The plantar surface of the hind paws was stimulated with von Frey filaments (Stoelting) to induce a withdrawal response by blinded personnel. The bending force of fiber required to induce a 50% withdrawal response was calculated following CCI surgery (pre-dosing baseline).
Allodynic rats (N=5-6), received an oral administration of (S)-AV1013 (25 mg/kg), AV1013-R (100 mg/kg) or vehicle. Two hours post-dosing, 50% paw withdrawal threshold was determined by blinded testers using von Frey filaments. The 50% withdrawal threshold prior to CCI surgery, pre-dosing (10 days post-surgery), and 2 hours post-dosing are plotted in FIG. 3.

Water solubility = type: physicochemical
[5] = Dog pharmacokinetics of the enantiomers after oral dosing of racemic AV1013; type: in vivo; settings: for Cmax: po
Procedure: Three male beagle dogs were dosed orally with 10 mg/kg racemic AV1013 via gavage. AV1013 was dissolved in water at 5 mg/ml and dosed via gavage at a volume of 2 ml/kg. Blood samples were collected via the jugular vein at 5, 15 and 30 minutes, 1, 2, 4, 6, 8, and 24 hours post dosing.
as §1, §2

Rolipram binding site = experiment: Inhibition of binding at the Rolipram binding site; settings: 10 uM

Compound: CC(C)c1nn2ccccc2c1C(=O)[C@H](C)N [(S)-AV1013, (S)-2-amino-1-(2-isopropylpyrazolo[1,5-a]pyridin-3-yl)propan-1-one]
- in vivo duration of action [1]: 2 to 24 h
- bioavailability ([1]; in vivo, share of the (S)-enantiomer dosed that is bioavailable): > 70%
- AUC(0-t) ([2]; male, Sprague-Dawley, oral 25 mg/kg racemic AV1013, plasma): 5950 ng·h/mL
- AUC ([2]; male, Sprague-Dawley, plasma, 25 mg/kg, oral dosing of racemate, rounded values, read-out: calculated area under the curves (AUC)): 6000 ng·h/mL
- Cmax ([2]; male, Sprague-Dawley, plasma, 25 mg/kg, oral 25 mg/kg racemic AV1013, plasma, read-out: Cmax): 1260 ng/mL
- Cmax ([2]; male, Sprague-Dawley, plasma, 25 mg/kg, oral dosing of racemate, rounded values, read-out: mean peak plasma levels (Cmax)): 1300 ng/mL
- AUC of (S) relative to (R) enantiomer ([2]; oral dosing of racemate): around 17 fold
- Cmax of (S) relative to (R) enantiomer ([2]; oral dosing of racemate): at least 3 fold
- stability / racemization in solution ([3]; free base (or hydrochloride salt where stated), in solution): unstable and racemizes in solution; also recorded: racemizes slowly in solution
- racemization in dosing solutions and bioanalytical solutions [3]: no detectable interconversion between the enantiomers
- racemization in dosing solutions and bioanalytical solutions ([3]; listed as (S)-enantiomer): no racemization has been documented
- attenuation of mechanical allodynia (50% paw withdrawal threshold) [4]: substantially more potent in treating neuropathic pain than the corresponding (R) enantiomer
- attenuation of mechanical allodynia (50% paw withdrawal threshold) ([4]; listed as (S)-enantiomer): more potent in vivo than is the (R)-enantiomer
- water solubility (Water solubility): good water solubility
- AUC of (S) relative to (R) enantiomer ([5]; dog, oral dosing of racemate): > 3 fold
- Cmax of (S) relative to (R) enantiomer ([5]; dog, oral dosing of racemate): at least 2 fold
- Cmax of (S) relative to (R) enantiomer ([5]; dog, oral dosing of racemate, listed as (S)-enantiomer): > 2 fold
- Cmax ([5]; male, beagle, dog, plasma, 10 mg/kg, beagle dog, oral 10 mg/kg racemic AV1013, plasma, read-out: Cmax): 2630 ng/mL
- Cmax ([5]; male, beagle, dog, plasma, 10 mg/kg, dog, oral dosing of racemate, rounded values, read-out: mean peak plasma levels (Cmax)): 2600 ng/mL
- AUC ([5]; male, beagle, plasma, 10 mg/kg, dog, oral dosing of racemate, rounded values, read-out: calculated area under the curves (AUC)): 24200 ng·h/mL
- AUC(0-t) ([5]; male, beagle dog, oral 10 mg/kg racemic AV1013, plasma): 24200 ng·h/mL
- inhibition of the Rolipram binding site (Rolipram binding site): 12%
